Experiments:
[1] = system: crabgrass, large; assay: Test C preemergence; type: in vivo, Digitaria sanguinalis; conditions: for Plant response rating (scale of 0 to 100), Crabgrass, Large: Preemergence, 250 g ai/ha; for Crabgrass, Large plant response rating / Plant response rating, Crabgrass, Large: preemergence; for Plant response rating, Crabgrass, Large: scale 0 to 100, 0 = no effect, 100 = complete control
Summary of the method: (§1)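 Pre- and postemergence greenhouse screen; vehicle was a non-phytotoxic solvent mix with surfactant. Preemergence: treatment applied right after sowing into loam and sand. Postemergence: treated at 1–4 leaves. Visual rating at 13–15 days, 100 = complete control.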

[2] = system: foxtail, giant; assay: Test C preemergence; type: in vivo, Setaria faberii; conditions: for Plant response rating (scale of 0 to 100), Foxtail, Giant: Preemergence, 250 g ai/ha; for Foxtail, Giant plant response rating / Plant response rating, Foxtail, Giant: preemergence; for Plant response rating, Foxtail, Giant: scale 0 to 100, 0 = no effect, 100 = complete control
Summary of the method: as §1

[3] = system: crabgrass, large; assay: Test C postemergence; type: in vivo, Digitaria sanguinalis; conditions: for Plant response rating (scale of 0 to 100 where 0 is no effect and 100 is complete control), Crabgrass, Large: Postemergence, 31 g ai/ha, visually evaluated after 13 to 15 days; for Crabgrass, Large plant response rating / Plant response rating, Crabgrass, Large: postemergence; for Crabgrass, Large plant response rating: 62 g ai/ha, scale 0 to 100
Summary of the method: as §1

[4] = system: morningglory; assay: Test A preemergence; type: in vivo, Ipomoea spp.; conditions: preemergence
Summary of the method: (§2)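 Scoring was visual, on a scale where 100 means complete control and 0 means no effect, comparing treated with untreated plants around 10 days post-application. Compounds in surfactant-containing non-phytotoxic solvent were sprayed onto soil preemergence or onto one- to two-leaf seedlings (2–10 cm) postemergence.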

[5] = system: johnsongrass; assay: Test C postemergence; type: in vivo, Sorghum halepense; conditions: for Plant response rating (scale of 0 to 100 where 0 is no effect and 100 is complete control), Johnsongrass: Postemergence, 31 g ai/ha, visually evaluated after 13 to 15 days; for Johnsongrass plant response rating / Plant response rating, Johnsongrass: postemergence; for Johnsongrass plant response rating: 62 g ai/ha, scale 0 to 100
Summary of the method: as §1

[6] = system: waterhemp; assay: Test C preemergence; type: in vivo, Amaranthus rudis; conditions: for Plant response rating (scale of 0 to 100), Waterhemp: Preemergence, 250 g ai/ha; for Waterhemp plant response rating / Plant response rating, Waterhemp: preemergence; for Plant response rating, Waterhemp: scale 0 to 100, 0 = no effect, 100 = complete control
Summary of the method: as §1

[7] = system: wheat; assay: Test C postemergence; type: in vivo, Triticum aestivum; conditions: for Plant response rating (scale of 0 to 100 where 0 is no effect and 100 is complete control), Wheat: Postemergence, 31 g ai/ha, visually evaluated after 13 to 15 days; for Wheat plant response rating / Plant response rating, Wheat: postemergence; for Wheat plant response rating: 62 g ai/ha, scale 0 to 100
Summary of the method: as §1

[8] = system: morningglory; assay: Test A postemergence; type: in vivo, Ipomoea spp.
Summary of the method: as §2

[9] = system: blackgrass; assay: Test C postemergence; type: in vivo, Alopecurus myosuroides; conditions: for Plant response rating (scale of 0 to 100 where 0 is no effect and 100 is complete control), Blackgrass: Postemergence, 31 g ai/ha, visually evaluated after 13 to 15 days; for Blackgrass plant response rating / Plant response rating, Blackgrass: postemergence; for Blackgrass plant response rating: 62 g ai/ha, scale 0 to 100
Summary of the method: as §1

[10] = system: barnyardgrass; assay: Test B flood; type: in vivo, Echinochloa crus-galli; conditions: 250 g ai/ha, visual rating on 0 to 100 scale (0 no effect, 100 complete control), 13 to 15 days
Summary of the method: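 Each compound is applied to the floodwater of pots holding 2-leaf seedlings, water standing 3 cm over the soil throughout. Plants stay in a greenhouse 13 to 15 days before visual scoring against controls from 0 (no effect) to 100 (complete control).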

[11] = system: oilseed rape; assay: Test C postemergence; type: in vivo, Brassica napus; conditions: for Plant response rating (scale of 0 to 100 where 0 is no effect and 100 is complete control), Oilseed Rape: Postemergence, 31 g ai/ha, visually evaluated after 13 to 15 days; for Oilseed Rape plant response rating / Plant response rating, Oilseed Rape: postemergence; for Oilseed Rape plant response rating: 62 g ai/ha, scale 0 to 100
Summary of the method: as §1

[12] = system: pigweed; assay: Test A postemergence; type: in vivo, Amaranthus retroflexus
Summary of the method: as §2

[13] = system: corn; assay: Test C postemergence; type: in vivo, Zea mays; conditions: for Plant response rating (scale of 0 to 100 where 0 is no effect and 100 is complete control), Corn: Postemergence, 31 g ai/ha, visually evaluated after 13 to 15 days; for Corn plant response rating / Plant response rating, Corn: postemergence; for Corn plant response rating: 62 g ai/ha, scale 0 to 100
Summary of the method: as §1

[14] = 31 g ai/ha, visual rating, scale 0 to 100 (0 no effect, 100 complete control), 13 to 15 days
[15] = 125 g ai/ha, scale 0 to 100, 0 is no effect, 100 is complete control
[16] = 250 g ai/ha, scale 0 to 100 (0 no effect, 100 complete control)
[17] = 125 g ai/ha, scale 0 to 100, 0 no effect, 100 complete control
[18] = 125 g ai/ha, visual injury, 0 to 100 scale, approx. 10 days
[19] = 500 g ai/ha, visual injury after approx. 10 days, 0 to 100 scale (0 no effect, 100 complete control)
[20] = Postemergence, 500 g ai/ha, visual rating after approx. 10 days, 0 to 100 scale (0 no effect, 100 complete control)
[21] = postemergence, 125 g ai/ha, about 10 days, visual rating on 0 to 100 scale (0 no effect, 100 complete control)
[22] = 62 g ai/ha, scale 0 to 100 (0 no effect, 100 complete control), 13 to 15 days
[23] = Postemergence, 500 g ai/ha, 0 to 100 scale (0 no effect, 100 complete control)

CCOc1cc(C(=O)NCC(F)(F)F)nn1Cc1ccnc(C(F)(F)F)c1 [Compound 104]
85: Plant response rating, Johnsongrass [5, 16] | Plant response rating, Oilseed Rape [11, 16]
35: Corn plant response rating [13] | Plant response rating, Corn [13, 17]
80: Plant response rating, Blackgrass [9, 16]
40: Plant response rating, Johnsongrass [5, 17] | Plant response rating, Blackgrass [9, 17] | Plant response rating (scale of 0 to 100 where 0 is no effect and 100 is complete control), Oilseed Rape [11]
50: Oilseed Rape plant response rating [11]
70: Crabgrass, Large plant response rating [3]
10: Wheat plant response rating [7] | Plant response rating, Wheat [7, 17] | Plant response rating (scale of 0 to 100 where 0 is no effect and 100 is complete control), Blackgrass [9] | Blackgrass plant response rating [9]
60: Plant response rating, Oilseed Rape [11, 17]
15: Johnsongrass plant response rating [5]
100: Plant response rating (scale of 0 to 100), Crabgrass, Large [1] | Crabgrass, Large plant response rating [1, 14] | Plant response rating, Crabgrass, Large ([1]; 62 g ai/ha, 13 to 15 days) | Crabgrass, Large plant response rating [1, 15] | Plant response rating (scale of 0 to 100), Foxtail, Giant [2] | Foxtail, Giant plant response rating [2, 14] | Plant response rating, Foxtail, Giant ([2]; 62 g ai/ha, 13 to 15 days) | Foxtail, Giant plant response rating [2, 15] | Morningglory plant response rating [4, 18] | Morningglory plant response rating [4, 19] | Plant response rating (scale of 0 to 100), Waterhemp [6] | Waterhemp plant response rating [6, 14] | Plant response rating, Waterhemp ([6]; 62 g ai/ha, 13 to 15 days) | Waterhemp plant response rating [6, 15] | Morningglory plant response rating [8, 20] | Morningglory plant response rating [8, 21] | Pigweed plant response rating [12, 20] | Pigweed plant response rating [12, 21]
25: Plant response rating, Wheat [7, 16]
5: Plant response rating (scale of 0 to 100 where 0 is no effect and 100 is complete control), Crabgrass, Large [3] | Plant response rating (scale of 0 to 100 where 0 is no effect and 100 is complete control), Johnsongrass [5] | Plant response rating (scale of 0 to 100 where 0 is no effect and 100 is complete control), Wheat [7] | Plant response rating (scale of 0 to 100 where 0 is no effect and 100 is complete control), Corn [13]
95: Plant response rating, Crabgrass, Large [3, 16] | Plant response rating, Corn [13, 16]
75: Plant response rating, Crabgrass, Large [3, 17] | Plant response rating, Barnyardgrass [10]

CCCc1cc(C(=O)NCC(F)(F)F)nn1Cc1ccnc(C(F)(F)F)c1 [Compound 105]
30: Blackgrass plant response rating [9]
35: Plant response rating (scale of 0 to 100 where 0 is no effect and 100 is complete control), Crabgrass, Large [3] | Johnsongrass plant response rating [5] | Plant response rating, Blackgrass [9, 17]
85: Plant response rating, Oilseed Rape [11, 17] | Plant response rating, Corn [13, 16]
40: Corn plant response rating [13]
5: Plant response rating (scale of 0 to 100 where 0 is no effect and 100 is complete control), Johnsongrass [5] | Plant response rating (scale of 0 to 100 where 0 is no effect and 100 is complete control), Wheat [7] | Wheat plant response rating [7]
45: Crabgrass, Large plant response rating [3] | Plant response rating, Johnsongrass [5, 17] | Plant response rating, Wheat [7, 16] | Plant response rating (scale of 0 to 100 where 0 is no effect and 100 is complete control), Oilseed Rape [11]
95: Plant response rating, Crabgrass, Large [3, 16]
90: Plant response rating, Crabgrass, Large [3, 17] | Plant response rating, Barnyardgrass [10] | Plant response rating, Oilseed Rape [11, 16]
75: Plant response rating, Johnsongrass [5, 16]
15: Plant response rating (scale of 0 to 100 where 0 is no effect and 100 is complete control), Corn [13]
60: Plant response rating, Blackgrass [9, 16] | Plant response rating, Corn [13, 17]
100: Plant response rating (scale of 0 to 100), Crabgrass, Large [1] | Crabgrass, Large plant response rating [1, 14] | Crabgrass, Large plant response rating [1, 22] | Crabgrass, Large plant response rating [1, 15] | Plant response rating (scale of 0 to 100), Foxtail, Giant [2] | Foxtail, Giant plant response rating [2, 14] | Foxtail, Giant plant response rating [2, 22] | Foxtail, Giant plant response rating [2, 15] | Morningglory plant response rating [4, 18] | Morningglory plant response rating [4, 19] | Plant response rating (scale of 0 to 100), Waterhemp [6] | Waterhemp plant response rating [6, 14] | Waterhemp plant response rating [6, 22] | Waterhemp plant response rating [6, 15] | Morningglory plant response rating [8, 20] | Morningglory plant response rating [8, 21] | Pigweed plant response rating [12, 20] | Pigweed plant response rating [12, 21]
10: Plant response rating, Wheat [7, 17] | Plant response rating (scale of 0 to 100 where 0 is no effect and 100 is complete control), Blackgrass [9]
50: Oilseed Rape plant response rating [11]

CCCc1cc(C(=O)NCC)nn1Cc1cc(C(F)(F)F)nn1C [Compound 129]
35: Plant response rating, Crabgrass, Large [3, 17] | Plant response rating, Blackgrass [9, 17]
70: Plant response rating, Oilseed Rape [11, 16]
60: Plant response rating (scale of 0 to 100 where 0 is no effect and 100 is complete control), Oilseed Rape [11] | Oilseed Rape plant response rating [11]
90: Crabgrass, Large plant response rating [1, 14] | Morningglory plant response rating [8, 21]
5: Plant response rating (scale of 0 to 100 where 0 is no effect and 100 is complete control), Johnsongrass [5] | Wheat plant response rating [7] | Plant response rating, Wheat [7, 16] | Plant response rating, Wheat [7, 17] | Blackgrass plant response rating [9]
20: Plant response rating, Crabgrass, Large [3, 16] | Plant response rating, Blackgrass [9, 16]
100: Plant response rating (scale of 0 to 100), Crabgrass, Large [1] | Crabgrass, Large plant response rating [1, 22] | Plant response rating, Crabgrass, Large ([1]; 125 g ai/ha, 13 to 15 days) | Plant response rating (scale of 0 to 100), Foxtail, Giant [2] | Foxtail, Giant plant response rating [2, 14] | Foxtail, Giant plant response rating [2, 22] | Plant response rating, Foxtail, Giant ([2]; 125 g ai/ha, 13 to 15 days) | Morningglory plant response rating [4, 18] | Morningglory plant response rating [4, 19] | Plant response rating (scale of 0 to 100), Waterhemp [6] | Waterhemp plant response rating [6, 14] | Waterhemp plant response rating [6, 22] | Plant response rating, Waterhemp ([6]; 125 g ai/ha, 13 to 15 days) | Morningglory plant response rating [8, 23] | Pigweed plant response rating [12, 23] | Pigweed plant response rating [12, 21]
0: Plant response rating (scale of 0 to 100 where 0 is no effect and 100 is complete control), Wheat [7]
10: Plant response rating (scale of 0 to 100 where 0 is no effect and 100 is complete control), Crabgrass, Large [3] | Crabgrass, Large plant response rating [3] | Johnsongrass plant response rating [5] | Plant response rating, Johnsongrass [5, 16] | Plant response rating, Johnsongrass [5, 17] | Plant response rating (scale of 0 to 100 where 0 is no effect and 100 is complete control), Blackgrass [9] | Plant response rating (scale of 0 to 100 where 0 is no effect and 100 is complete control), Corn [13] | Corn plant response rating [13]
15: Plant response rating, Corn [13, 16] | Plant response rating, Corn [13, 17]
40: Plant response rating, Barnyardgrass [10]
65: Plant response rating, Oilseed Rape [11, 17]
